Source: ChEMBL document CHEMBL5465560, “Selectivity Literature for EUbOPEN Chemogenomic Library” (2024)
Each block holds one compound with its values, some of them ahead of it.

Tests used:
[1] = target: T1, Testis-specific serine/threonine-protein kinase 1 (Homo sapiens) (UniProt Q9BXA7); details: at 10 µM
T1 sequence (whole entry): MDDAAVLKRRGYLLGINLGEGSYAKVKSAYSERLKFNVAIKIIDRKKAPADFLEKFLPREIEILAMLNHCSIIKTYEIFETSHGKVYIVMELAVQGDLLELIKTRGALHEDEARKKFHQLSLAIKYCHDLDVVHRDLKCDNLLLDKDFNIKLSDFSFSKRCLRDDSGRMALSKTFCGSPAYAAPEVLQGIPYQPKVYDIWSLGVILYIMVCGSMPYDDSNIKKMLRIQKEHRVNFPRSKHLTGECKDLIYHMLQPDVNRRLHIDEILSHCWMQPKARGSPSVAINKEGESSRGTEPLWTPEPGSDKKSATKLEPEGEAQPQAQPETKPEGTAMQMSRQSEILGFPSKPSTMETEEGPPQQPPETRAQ

[2] = target: SRSF protein kinase 3 (Homo sapiens) (UniProt Q9UPE1); assay: Selectivity interaction (KinomeScan (DiscoverX)) EUB0000229b SRPK3; details: at 10 µM
[3] = target: T2, 3-phosphoinositide-dependent protein kinase 1 (Homo sapiens) (UniProt O15530); assay: Selectivity interaction (KinomeScan (DiscoverX)) EUB0000229b PDPK1; details: at 10 µM
T2 sequence (whole entry): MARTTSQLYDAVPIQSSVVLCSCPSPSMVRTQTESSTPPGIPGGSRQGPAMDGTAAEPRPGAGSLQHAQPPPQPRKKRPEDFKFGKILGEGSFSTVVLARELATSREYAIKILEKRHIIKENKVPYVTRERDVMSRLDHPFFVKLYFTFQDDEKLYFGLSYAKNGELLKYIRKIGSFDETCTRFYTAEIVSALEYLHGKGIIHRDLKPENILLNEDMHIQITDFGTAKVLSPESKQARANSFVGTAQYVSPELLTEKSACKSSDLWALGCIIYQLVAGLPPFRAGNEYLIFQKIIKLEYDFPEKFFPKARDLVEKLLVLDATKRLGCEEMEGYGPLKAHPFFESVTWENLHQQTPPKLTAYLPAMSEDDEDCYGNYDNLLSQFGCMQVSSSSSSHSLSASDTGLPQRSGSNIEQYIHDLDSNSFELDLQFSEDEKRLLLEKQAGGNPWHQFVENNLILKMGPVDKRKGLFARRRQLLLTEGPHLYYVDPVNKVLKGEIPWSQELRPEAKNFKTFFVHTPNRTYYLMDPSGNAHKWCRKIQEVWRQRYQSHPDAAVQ

[4] = target: T3, Dual specificity mitogen-activated protein kinase kinase 4 (Homo sapiens) (UniProt P45985); assay: Selectivity interaction (ProQinase) EUB0000171b MAP2K4
T3 sequence (whole entry): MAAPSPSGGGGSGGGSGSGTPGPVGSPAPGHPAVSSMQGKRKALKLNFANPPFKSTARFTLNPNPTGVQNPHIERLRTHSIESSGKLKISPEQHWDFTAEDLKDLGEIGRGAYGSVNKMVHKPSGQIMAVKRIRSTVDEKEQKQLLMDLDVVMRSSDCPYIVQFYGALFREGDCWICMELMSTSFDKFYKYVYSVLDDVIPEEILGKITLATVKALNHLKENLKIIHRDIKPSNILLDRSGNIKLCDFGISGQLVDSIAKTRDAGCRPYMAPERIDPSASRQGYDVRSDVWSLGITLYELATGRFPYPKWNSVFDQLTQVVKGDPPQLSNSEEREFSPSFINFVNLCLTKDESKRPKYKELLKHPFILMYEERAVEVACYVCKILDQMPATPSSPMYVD

[5] = target: Ribosomal protein S6 kinase alpha-5 (Homo sapiens) (UniProt O75582); assay: Selectivity interaction (KinomeScan (DiscoverX)) EUB0000655a RPS6KA5; details: at 10 µM
[6] = target: Serine/threonine-protein kinase 10 (Homo sapiens) (UniProt O94804); assay: Selectivity interaction (ActivX KiNativ screen (ex vivo kinase selectivity in human PBMCs)) EUB0001619a STK10; type: cell-based; details: PBMC, at 1 µM
[7] = target: T4, Ephrin type-B receptor 6 (Homo sapiens) (UniProt O15197); assay: Selectivity interaction (KinomeScan (DiscoverX)) EUB0000666a EPHB6; details: at 10 µM
T4 sequence (whole entry): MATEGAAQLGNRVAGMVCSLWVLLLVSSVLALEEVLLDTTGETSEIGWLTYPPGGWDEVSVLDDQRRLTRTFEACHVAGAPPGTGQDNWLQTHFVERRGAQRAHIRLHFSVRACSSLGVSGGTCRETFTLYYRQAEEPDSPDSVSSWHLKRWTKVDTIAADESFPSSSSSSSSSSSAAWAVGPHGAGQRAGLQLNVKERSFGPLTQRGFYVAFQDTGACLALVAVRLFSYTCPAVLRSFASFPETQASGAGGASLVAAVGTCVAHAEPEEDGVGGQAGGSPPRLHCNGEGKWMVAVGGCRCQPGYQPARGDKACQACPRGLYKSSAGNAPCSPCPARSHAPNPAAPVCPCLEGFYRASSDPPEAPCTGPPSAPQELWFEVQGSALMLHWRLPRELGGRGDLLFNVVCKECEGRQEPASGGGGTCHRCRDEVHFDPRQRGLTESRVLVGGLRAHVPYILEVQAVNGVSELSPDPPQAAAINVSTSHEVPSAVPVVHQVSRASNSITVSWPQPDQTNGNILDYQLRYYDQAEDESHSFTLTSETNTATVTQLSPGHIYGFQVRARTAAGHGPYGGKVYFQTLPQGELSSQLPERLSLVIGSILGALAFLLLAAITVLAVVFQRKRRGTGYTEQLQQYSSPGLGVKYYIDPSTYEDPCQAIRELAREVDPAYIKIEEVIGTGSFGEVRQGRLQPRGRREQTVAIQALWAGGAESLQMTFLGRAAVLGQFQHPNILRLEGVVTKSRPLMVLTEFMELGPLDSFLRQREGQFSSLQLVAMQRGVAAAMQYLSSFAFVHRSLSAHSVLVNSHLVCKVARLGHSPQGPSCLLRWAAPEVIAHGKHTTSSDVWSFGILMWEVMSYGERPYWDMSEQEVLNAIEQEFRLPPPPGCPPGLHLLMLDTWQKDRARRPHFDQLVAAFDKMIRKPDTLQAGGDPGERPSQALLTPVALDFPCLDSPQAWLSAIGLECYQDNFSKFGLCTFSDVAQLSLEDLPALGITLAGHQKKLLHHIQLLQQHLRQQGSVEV

Ribosomal protein S6 kinase alpha-5 (Homo sapiens), sequence (O75582 whole entry, looked up): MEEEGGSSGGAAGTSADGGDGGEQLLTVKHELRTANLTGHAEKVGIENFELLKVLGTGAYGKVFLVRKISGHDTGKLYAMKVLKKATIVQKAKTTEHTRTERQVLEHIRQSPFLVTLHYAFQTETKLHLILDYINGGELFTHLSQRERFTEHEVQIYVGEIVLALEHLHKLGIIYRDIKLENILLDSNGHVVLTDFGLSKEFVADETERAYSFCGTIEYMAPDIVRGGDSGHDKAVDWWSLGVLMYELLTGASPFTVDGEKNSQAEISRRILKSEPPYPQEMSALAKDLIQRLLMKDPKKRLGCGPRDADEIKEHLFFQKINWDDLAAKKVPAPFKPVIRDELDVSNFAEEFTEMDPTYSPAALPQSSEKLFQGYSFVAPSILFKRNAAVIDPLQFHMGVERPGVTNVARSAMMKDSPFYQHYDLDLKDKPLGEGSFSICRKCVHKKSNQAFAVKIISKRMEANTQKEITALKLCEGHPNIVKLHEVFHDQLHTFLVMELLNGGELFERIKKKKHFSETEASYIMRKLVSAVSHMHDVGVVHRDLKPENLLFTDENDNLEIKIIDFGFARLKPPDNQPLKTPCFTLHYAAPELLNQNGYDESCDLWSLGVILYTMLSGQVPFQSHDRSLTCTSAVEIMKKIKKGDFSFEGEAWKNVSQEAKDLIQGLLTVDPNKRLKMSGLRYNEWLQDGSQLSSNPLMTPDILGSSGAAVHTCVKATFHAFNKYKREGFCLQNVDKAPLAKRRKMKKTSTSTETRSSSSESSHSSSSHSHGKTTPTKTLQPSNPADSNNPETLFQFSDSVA
SRSF protein kinase 3 (Homo sapiens), sequence (Q9UPE1 whole entry): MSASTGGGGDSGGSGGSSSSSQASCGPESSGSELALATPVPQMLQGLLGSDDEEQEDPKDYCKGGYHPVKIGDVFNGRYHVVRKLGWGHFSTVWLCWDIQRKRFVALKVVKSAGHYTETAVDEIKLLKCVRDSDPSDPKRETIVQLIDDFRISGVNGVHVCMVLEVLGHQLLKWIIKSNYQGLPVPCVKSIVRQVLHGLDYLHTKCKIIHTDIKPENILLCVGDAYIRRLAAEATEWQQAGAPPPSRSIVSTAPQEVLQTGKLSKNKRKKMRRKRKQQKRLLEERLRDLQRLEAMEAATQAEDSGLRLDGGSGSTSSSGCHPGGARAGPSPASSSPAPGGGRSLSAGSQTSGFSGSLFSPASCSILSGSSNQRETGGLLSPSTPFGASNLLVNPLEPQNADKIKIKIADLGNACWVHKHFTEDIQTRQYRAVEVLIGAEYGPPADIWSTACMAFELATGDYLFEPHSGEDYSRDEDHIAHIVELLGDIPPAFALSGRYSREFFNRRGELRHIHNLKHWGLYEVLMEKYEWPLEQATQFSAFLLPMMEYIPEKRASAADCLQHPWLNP
Serine/threonine-protein kinase 10 (Homo sapiens), sequence (O94804 whole entry, looked up): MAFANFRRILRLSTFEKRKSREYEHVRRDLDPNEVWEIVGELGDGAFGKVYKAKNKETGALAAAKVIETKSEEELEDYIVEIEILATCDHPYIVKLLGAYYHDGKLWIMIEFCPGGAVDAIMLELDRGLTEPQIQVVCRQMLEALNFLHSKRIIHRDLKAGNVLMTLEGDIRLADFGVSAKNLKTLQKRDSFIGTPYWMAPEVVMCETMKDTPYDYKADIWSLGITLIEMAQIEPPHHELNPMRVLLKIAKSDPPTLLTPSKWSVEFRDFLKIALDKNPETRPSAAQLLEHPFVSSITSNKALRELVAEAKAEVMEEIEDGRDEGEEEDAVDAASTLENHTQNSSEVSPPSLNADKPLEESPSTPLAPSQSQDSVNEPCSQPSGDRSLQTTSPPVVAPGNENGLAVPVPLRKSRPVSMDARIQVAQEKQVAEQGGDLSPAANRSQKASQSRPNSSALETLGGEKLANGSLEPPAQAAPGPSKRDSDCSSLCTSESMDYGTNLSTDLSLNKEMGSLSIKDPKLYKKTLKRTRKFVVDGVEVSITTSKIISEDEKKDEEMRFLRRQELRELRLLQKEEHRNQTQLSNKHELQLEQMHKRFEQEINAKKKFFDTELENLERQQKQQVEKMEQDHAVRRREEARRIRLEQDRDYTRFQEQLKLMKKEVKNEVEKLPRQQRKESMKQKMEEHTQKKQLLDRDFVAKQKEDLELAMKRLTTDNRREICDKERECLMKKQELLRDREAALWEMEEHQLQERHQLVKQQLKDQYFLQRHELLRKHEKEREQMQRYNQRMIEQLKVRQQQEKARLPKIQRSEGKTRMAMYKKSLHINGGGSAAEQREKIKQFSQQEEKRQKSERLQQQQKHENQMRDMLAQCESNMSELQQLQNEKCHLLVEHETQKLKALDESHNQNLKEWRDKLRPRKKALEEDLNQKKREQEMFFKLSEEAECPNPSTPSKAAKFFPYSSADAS

% of control [1]: 100%
SMILES: CCN(CC)CCCCNc1ncc2cc(-c3cc(OC)cc(OC)c3)c(NC(=O)NC(C)(C)C)nc2n1

SMILES: COc1cc(N(C)c2ccnc3ccc(C(F)(F)F)cc23)cc(OC)c1OC
% binding [2]: 86%
% binding [3]: 98%

% of control ([4]; at 1 µM): 71%
% of control ([4]; at 5 µM): 90%
SMILES: C=CC(=O)Nc1cccc(C(=O)Nc2ccc(Nc3cc(-c4[nH]c(SC)nc4C)ccn3)cc2)c1

SMILES: CN(C)CCOc1ccc(-c2nc(-c3ccncc3)c(-c3ccc4c(c3)CC/C4=N\O)[nH]2)cc1
% of control [5]: 90%

SMILES: N#Cc1cccc(-c2c[nH]c3ncnc(N4CCOCC4)c23)c1
% of inhibition [6]: 77%

SMILES: O=C(NOC[C@H](O)CO)c1ccc(F)c(F)c1Nc1ccc(I)cc1F
% of control [7]: 87%
